Assay [1] deals with human STING protein (Homo sapiens (Human), UniProt Q86WV6). The assay is described as follows: WT STING binding assay (HTRF, competition with labeled 2′3′cGAMP). The settings on record: recombinant 6×His-tagged human STING, three hours at room temperature. Summed up:
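Competitive HTRF binding: 10-point compound titration incubated 3 h at room temperature with 6×His-tagged human STING and labeled 2′3′cGAMP; FRET read at 665 nm. IC50 by curve fitting; percent inhibition relative to maximal binding of unlabeled 2′3′cGAMP control.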

Assay [2] relates to THP-1 Lucia ISG cells. The assay is described as follows: ISRE-luciferase assay (ISG-LUC activation). The assay is classed as cell-based. The note with it: Homo sapiens, THP1-Lucia ISG, 24 hours, luciferase reporter. Summed up:
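THP-1 Lucia ISG cells at 5×10^5 cells/ml in 2% FBS medium were treated with test article or DMSO vehicle for 24 h. Secreted luciferase was read by luminescence and normalized to vehicle, reported as RLU.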
A general note: A reporter such as luciferase makes a cellular process visible.

Sequence of human STING protein (Q86WV6 whole entry): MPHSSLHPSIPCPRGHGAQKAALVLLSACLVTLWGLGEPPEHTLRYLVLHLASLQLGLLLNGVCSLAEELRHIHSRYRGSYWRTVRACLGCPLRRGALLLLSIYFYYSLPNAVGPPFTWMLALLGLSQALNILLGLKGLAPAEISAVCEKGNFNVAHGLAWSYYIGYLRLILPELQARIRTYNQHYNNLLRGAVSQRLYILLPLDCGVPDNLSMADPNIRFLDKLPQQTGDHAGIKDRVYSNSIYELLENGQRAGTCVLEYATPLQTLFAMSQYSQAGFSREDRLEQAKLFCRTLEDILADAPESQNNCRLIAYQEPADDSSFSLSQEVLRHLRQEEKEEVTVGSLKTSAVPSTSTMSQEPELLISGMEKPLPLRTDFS

Take `N#Cc1cc(C(=O)O)c(NC(=O)c2ccc(-n3ccnc3)nn2)cc1OCCc1cc(NC(=O)c2ccc(-n3ccnc3)nn2)c(C(=O)O)cc1F` [Compound 167]: the IC50 in assay [1] lay in the range of 10 to 100 nM. For the same compound, the EC50 in assay [2] fell in the range of 50 to 500 nM.

For the compound `COc1cc(NC(=O)c2ccc(-n3ccnc3)nn2)c(C(=O)O)c(F)c1CCCc1cc(NC(=O)c2ccc(-n3ccnc3)nn2)c(C(=O)O)cc1F` [Compound 170], the IC50 in assay [1] lay within 10 to 100 nM. Moreover, the EC50 in assay [2] was 50 to 500 nM.

Turning to `O=C(Nc1cc(OCCOc2cc(NC(=O)c3ccc(-n4ccnc4)nn3)c(C(=O)O)cc2F)c(F)cc1C(=O)O)c1ccc(-n2ccnc2)nn1` [Compound 171], in assay [1], the IC50 lay in the range of 10 to 100 nM. Also, in assay [2], the EC50 lay within 50 to 500 nM.

In the case of `O=C(Nc1cc(F)c(CCCc2cc(C(=O)O)c(NC(=O)c3ccc(-n4ccnc4)nn3)cc2F)cc1C(=O)O)c1ccc(-n2ccnc2)nn1` [Compound 172], the half-inhibitory concentration (IC50) in assay [1] was 100 to 1000 nM. Further, the concentration for a half-maximal effect (EC50) in assay [2] is over 5000 nM.

As to `CCOC(=O)c1cc(F)c(CCCc2cc(NC(=O)c3ccc(-n4ccnc4)nn3)c(C(=O)O)cc2F)cc1NC(=O)c1ccc(-n2ccnc2)nn1` [Compound 173, 2-(6-(1H-imidazol-1-yl)pyridazine-3-carboxamido)-4-(3-(5-(6-(1H-imidazol-1-yl)pyridazine-3-carboxamido)-4-(ethoxycarbonyl)-2-fluorophenyl)propyl)-5-fluorobenzoic acid], the IC50 in assay [1] was in the range of 10 to 100 nM. Also, the EC50 in assay [2] is under 50 nM.

Regarding `O=C(Nc1cc(OCCc2cc(C(=O)O)c(NC(=O)c3ccc4nnnn4n3)cc2F)c(F)cc1C(=O)O)c1ccc2nnnn2n1` [Compound 176], the IC50 in assay [1] is 100 to 1000 nM. For the same compound, the EC50 in assay [2] is over 5000 nM.

Regarding `O=C(Nc1cc(OCCc2cc(NC(=O)c3ccc(-n4ccnc4)nn3)c(C(=O)O)nc2Cl)c(F)cc1C(=O)O)c1ccc(-n2ccnc2)nn1` [Compound 181], the IC50 in assay [1] lay in the range of 10 to 100 nM. In addition, in assay [2], the EC50 lay within 50 to 500 nM.

Turning to `C#Cc1cc(C(=O)O)c(NC(=O)c2ccc(-n3ccnc3)nn2)cc1CCOc1cc(NC(=O)c2ccc(-n3ccnc3)nn2)c(C(=O)O)cc1F` [Compound 183], the IC50 in assay [1] lay in the range of 100 to 1000 nM. The same compound had an EC50 in assay [2] of 500 to 5000 nM.

In the case of `O=C(Nc1cc(CSCc2cc(NC(=O)c3ccc4nnnn4n3)c(C(=O)O)cc2F)c(F)cc1C(=O)O)c1ccc(-n2ccnc2)nn1` [Compound 184], the IC50 in assay [1] is 10 to 100 nM. This compound also returned an EC50 in assay [2] of 500 to 5000 nM.

Regarding `CC(COc1cc(NC(=O)c2ccc(-n3ccnc3)nn2)c(C(=O)O)cc1F)COc1cc(NC(=O)c2ccc(-n3ccnc3)nn2)c(C(=O)O)cc1F` [Compound 185], the half-maximal inhibitory concentration (IC50) in assay [1] is 10 to 100 nM. Moreover, the EC50 in assay [2] fell in the range of 500 to 5000 nM.

With `O=C(Nc1cc(CCc2cc(NC(=O)c3ccc(-n4ccnc4)nn3)c(C(=O)O)cc2F)c(F)cc1C(=O)O)c1ccc(-n2ccnc2)nn1` [Compound 187], the IC50 in assay [1] is 10 to 100 nM. In assay [2], this compound gave an EC50 of 50 to 500 nM.

On to `O=C(Nc1cc(CCCc2cc(NC(=O)c3cc4nnnn4nn3)c(C(=O)O)cc2F)c(F)cc1C(=O)O)c1ccc(-c2cn[nH]c2)nn1` [Compound 192], for which the 50% inhibitory concentration (IC50) in assay [1] was 10 to 100 nM. Also, the half-maximal effective concentration (EC50) in assay [2] was 500 to 5000 nM.

Regarding `O=C(Nc1cc(CCOc2cc(NC(=O)c3ccc4nnnn4n3)c(C(=O)O)cc2F)c(Cl)cc1C(=O)O)c1ccc(-n2ccnc2)nn1` [Compound 196], the IC50 in assay [1] was in the range of 10 to 100 nM. In assay [2], the EC50 was 50 to 500 nM.

As for `O=C(Nc1cc(CCOc2cc(NC(=O)c3ccc(-n4ccnc4)nn3)c(C(=O)O)cc2Cl)c(F)cc1C(=O)O)c1ccc(-n2ccnc2)nn1` [Compound 197], in assay [1], the IC50 lay in the range of 10 to 100 nM. Further, the EC50 in assay [2] is 50 to 500 nM.

Consider `O=C(Nc1cc(CCCCc2cc(NC(=O)c3ccc(-n4ccnc4)nn3)c(C(=O)O)cc2F)c(F)cc1C(=O)O)c1ccc(-n2ccnc2)nn1` [Compound 202], for which the IC50 in assay [1] is 10 to 100 nM. This compound gave a concentration giving a half-maximal response (EC50) in assay [2] of 50 to 500 nM.

For `O=C(Nc1cc(OCCCOc2cc(NC(=O)c3ccc(-n4ccnc4)nn3)c(C(=O)O)cc2F)ccc1C(=O)O)c1ccc(-n2ccnc2)nn1` [Compound 203], the IC50 in assay [1] was in the range of 10 to 100 nM. In assay [2], this compound had an EC50 of 500 to 5000 nM.

What is called IC50 is the point on the concentration scale where inhibition reaches its midpoint. The EC50 is the concentration needed to bring the measured effect to its halfway point. Read a low EC50 as greater potency.

For the origin of these results see patent US20230357253A1, “AGONISTS OF STIMULATOR OF INTERFERON GENES STING” (THE SCRIPPS RESEARCH INSTITUTE, priority 2020, published 2023).
